Each structure is given as a SMILES string. Entries after “also recorded” stand apart in the source; their conditions may differ.

T1 sequence (Q09427 whole entry): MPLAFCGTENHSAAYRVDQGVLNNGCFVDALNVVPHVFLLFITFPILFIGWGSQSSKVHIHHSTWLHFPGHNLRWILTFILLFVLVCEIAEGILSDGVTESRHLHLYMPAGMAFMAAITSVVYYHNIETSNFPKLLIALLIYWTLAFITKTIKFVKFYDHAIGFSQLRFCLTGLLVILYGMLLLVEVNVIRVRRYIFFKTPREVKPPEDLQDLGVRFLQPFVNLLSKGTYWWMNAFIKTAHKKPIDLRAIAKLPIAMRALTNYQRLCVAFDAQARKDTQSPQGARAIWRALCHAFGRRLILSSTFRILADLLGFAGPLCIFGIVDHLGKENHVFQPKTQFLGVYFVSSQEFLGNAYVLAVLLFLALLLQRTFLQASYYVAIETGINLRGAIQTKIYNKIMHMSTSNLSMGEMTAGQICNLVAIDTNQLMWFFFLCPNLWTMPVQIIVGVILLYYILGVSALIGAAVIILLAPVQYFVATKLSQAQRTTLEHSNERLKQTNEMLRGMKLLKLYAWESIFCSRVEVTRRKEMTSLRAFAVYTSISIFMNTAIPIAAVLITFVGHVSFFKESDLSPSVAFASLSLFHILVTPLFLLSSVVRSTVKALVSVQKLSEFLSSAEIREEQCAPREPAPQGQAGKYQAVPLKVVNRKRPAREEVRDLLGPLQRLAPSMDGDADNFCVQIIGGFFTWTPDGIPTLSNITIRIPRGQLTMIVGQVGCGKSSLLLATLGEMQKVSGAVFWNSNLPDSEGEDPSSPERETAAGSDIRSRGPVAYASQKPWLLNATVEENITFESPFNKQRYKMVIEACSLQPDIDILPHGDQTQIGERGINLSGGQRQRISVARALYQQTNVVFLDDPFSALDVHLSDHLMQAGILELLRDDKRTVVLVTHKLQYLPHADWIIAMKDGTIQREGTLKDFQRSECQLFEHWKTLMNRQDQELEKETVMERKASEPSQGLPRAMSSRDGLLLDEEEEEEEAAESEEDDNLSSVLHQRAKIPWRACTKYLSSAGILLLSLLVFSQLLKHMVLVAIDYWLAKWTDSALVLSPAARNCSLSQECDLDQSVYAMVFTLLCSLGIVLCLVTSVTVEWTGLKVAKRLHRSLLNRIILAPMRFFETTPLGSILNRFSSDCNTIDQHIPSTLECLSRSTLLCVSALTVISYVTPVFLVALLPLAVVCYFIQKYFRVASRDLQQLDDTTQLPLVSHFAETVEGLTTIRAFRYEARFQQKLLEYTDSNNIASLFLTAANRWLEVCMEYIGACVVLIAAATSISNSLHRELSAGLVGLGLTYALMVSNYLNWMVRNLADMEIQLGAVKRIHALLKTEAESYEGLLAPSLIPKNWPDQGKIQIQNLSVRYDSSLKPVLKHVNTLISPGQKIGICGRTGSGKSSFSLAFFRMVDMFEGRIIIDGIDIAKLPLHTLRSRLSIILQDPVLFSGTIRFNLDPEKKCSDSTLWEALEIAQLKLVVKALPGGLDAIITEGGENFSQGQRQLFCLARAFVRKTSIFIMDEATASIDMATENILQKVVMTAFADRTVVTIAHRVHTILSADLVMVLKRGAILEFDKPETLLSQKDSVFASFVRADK
T1 sequence (A0A1U7QRT4 1-390): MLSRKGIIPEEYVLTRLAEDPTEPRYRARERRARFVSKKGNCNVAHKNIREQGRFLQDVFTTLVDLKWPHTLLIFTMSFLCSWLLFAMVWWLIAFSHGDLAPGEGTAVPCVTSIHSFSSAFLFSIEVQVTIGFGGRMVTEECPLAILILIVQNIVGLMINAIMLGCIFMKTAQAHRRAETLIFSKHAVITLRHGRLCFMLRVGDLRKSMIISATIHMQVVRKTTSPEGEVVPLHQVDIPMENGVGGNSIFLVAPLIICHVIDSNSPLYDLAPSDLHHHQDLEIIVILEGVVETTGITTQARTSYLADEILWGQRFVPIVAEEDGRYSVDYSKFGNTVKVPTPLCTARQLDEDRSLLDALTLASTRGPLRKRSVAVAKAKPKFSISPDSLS

This test concerns the target T1, KATP ion channels of beta cells in the pancreas (HIT-T15 cells) (UniProt A0A1U7QRT4+Q09427).
T1 construct: endogenous in cells; host or cells: HIT-T15 cells
The test is described as follows: Electro-physiological experiment: whole cell patch clamp recording of KATP current. The class given is cell-based. The following applies: single compounds vs GBC; FIG. 5. As for the experimental part:
HIT-T15 cells used for the experimental examples below were cultivated in an RPMI 1640 culture medium containing horse serum (10%, v/v), fetal bovine serum (2.5% v/v), and 1% penicillin-streptomycin, in a 5% CO2 incubator at 37° C.
Since type II diabetes is directly related to the KATP ion channels of beta cells in the pancreas (Tarasov, A. et al., Diabetes., 53(3), pp. S113-S122, 2004), it was tested whether or not the Lithospermum erythrorhizon extract obtained in the above example or the shikonin compounds isolated therefrom blocks the KATP ion channels of beta cells in the pancreas.
The ion current was recorded by a conventional whole cell patch clamp method, using a patch clamp amplifier (EPC-9, Heka Elektronik, Lambrecht, Germany). The measurement electrode was pulled from a borosilicate glass capillary using a puller (DMZ-Universal Puller; Dagan Co., USA). The electrode was selected to have a resistance of 6 to 9 MΩ when a solution was filled in the electrode. A cover glass, to which the cells were adhered, was placed on a microscope, and the extra-cellular fluid was allowed to flow, due to gravity, at a speed of up to 0.5 ml/min. When measuring the KATP electric current, the solution inside the electrode included (in mM): 10 NaCl, 102 KCl, 1 CaCl2, 1 MgCl2, 10 HEPES, 0.1 Na2-ATP, 1 Na2-GTP, and 10 EGTA (pH 7.2). To utilize the voltage-clamp method in taking records, the capacitance and series resistance of the cell membranes were compensated by 80% or higher, and the low-pass filter was set to 1 kHZ during the experiments. To measure the KATP electric current, the cell solution was substituted with 110 mM of a barium solution (mM: 110 BaCl2, 10 HEPES, 10 glucose), after which the membrane potential was fixed at −60 mV, and the resulting introvert current was recorded. The experiment results were stored in a Pentium level IBM computer and analyzed using Pulse/Pulsefit (v8.65) software (Heka Elektronik, Lambrecht, Germany), and all of the experiments were performed at room temperature.
A general note: In patch-clamp work, channel activity is measured electrically.
For `CC(C)=CCC(OC(=O)C(C)C)C1=CC(=O)c2c(O)ccc(O)c2C1=O` (stereo not shown) [BS, Isobutyryl Shikonin], the “inhibition of KATP ion channels by shikonin single compounds compared with GBC” value (shortened to “inhibition … compared with GBC”) was “effectively inhibit KATP ion channels”.

`CC(C)=CCC(OC(=O)C=C(C)C)C1=CC(=O)c2c(O)ccc(O)c2C1=O` (stereo not drawn) [DS, β. β-dimethylacryl Shikonin]: the “inhibition … compared with GBC” value is “effectively inhibit KATP ion channels; also recorded: the best in providing the inhibitory effects”.

As to `CCC(C)C(=O)OC(CC=C(C)C)C1=CC(=O)c2c(O)ccc(O)c2C1=O` (stereo not drawn) [MS, α-methyl-n-butyryl Shikonin], the “inhibition … compared with GBC” value is recorded as “effectively inhibit KATP ion channels”.

In the case of `CC(C)=CCC(OC(=O)CC(C)C)C1=CC(=O)c2c(O)ccc(O)c2C1=O` (stereo not shown) [VS, Isovaleryl Shikonin], the “inhibition … compared with GBC” value is on record as “effectively inhibit KATP ion channels; also recorded: the best in providing the inhibitory effects”.
